The results in this text go back to US20240238448A1, “USE OF CHEMICAL EPIGENETIC MODIFIERS TO MODULATE GENE […] VECTORS” (The University of North Carolina at Chapel Hill, priority 2021, published 2024).

One may read the bioavailability as the share of a dose that reaches the circulation, judged against a reference dose that is usually intravenous.

For data set [1], the system named is transgene (firefly luciferase) expression in HEK293T.17 cells. Nature of the data set: ZF-CEM technology AAV transgene expression, Promega Dual Luciferase Assay in HEK293T.17 cells. The data set is classed as cell-based, human. Here is the method:
At a higher viral genomes per cell dose of virus, higher fold change in transgene (firefly luciferase) expression was seen. HEK293T.17 cells that stably express Renilla Luciferase (for normalization purposes) were plated at 7.5K cells per well in a 96 well plate. The next day, the cells were infected with ZF-CEM technology virus at either 2K or 20K vg/cell. After 24 hours, the cells were treated with varying concentrations of CEM87. After an additional 48 hours (72 hours post initial AAV infection), a Promega Dual Luciferase Assay was run to determine the levels of luciferase.
At 20K viral genomes per cell, ZF-CEM technology was able to increase the levels of transgene (firefly luciferase) expression in a statistically significant manner as early as 24 hours and continue to have effects up to 96 hours post CEM87 addition (FIG. 16). The highest fold change in luciferase expression was seen 24 hours after CEM87 dosage (48 hours after AAV infection). HEK293T.17 cells that stably express Renilla Luciferase (for normalization purposes) were plated at 7.5K cells per well in a 96 well plate. The next day, the cells were infected with ZF-CEM technology virus at 20K vg/cell. After 24 hours, the cells were treated with 200 nM CEM87. A Promega Dual Luciferase Assay was run every 24 hours post CEM87 dosage to determine the levels of luciferase over time.
At 20K viral genomes per cell, the impact of ZF-CEM technology on transgene expression was reversible through washout or washout with the addition of FK506, a chemical capable of competing off CEM87 from the transgene it is recruited to (FIG. 17). Reversibility was achieved within 24 hours of removal of CEM87 through washout or washout and treatment with 100× more FK506 ([…]). HEK293T.17 cells that stably express Renilla Luciferase (for normalization purposes) were plated at 7.5K cells per well in a 96 well plate. The next day, the cells were infected with ZF-CEM technology virus at 20K vg/cell. After 24 hours, the cells were treated with 200 nM CEM87. After 48 hours, wells were either washed out with fresh media or washed out with fresh media that contained […]. A Promega Dual Luciferase Assay was run every 24 hours post washout/FK506 dosage to determine the levels of luciferase over time.
HEK293T.17 cells that stably express Renilla Luciferase (for normalization purposes) were plated at 7.5K cells per well in a 96 well plate. The next day, the cells were infected with ZF-CEM technology virus at 20K vg/cell. After 24 hours, the cells were treated with 200 nM CEM114. After 48 hours, a Promega Dual Luciferase Assay was run to determine the levels of luciferase.

The nature of data set [2]: Pharmacokinetics of CEM87 in mice. As to conditions: mouse, in vivo. Here is the method:
Pharmacokinetic Data of CEM87 in Mice: Initial and encouraging pharmacokinetics (PK) analysis of CEM87 were conducted. Mice were administered a single 3 mg/kg dose of CEM87 via intravenous (IV) injection or a single dose of 30 mg/kg of CEM87 through the intraperitoneal (IP) route (n=9 per group, 3 mice per time point).

Data set [3] has as its system AAV2-BD-JET-GFP genomes in 293-ZF-FKBP cells. Nature of the data set: CEM activation of AAV2-BD-JET-GFP vectors in 293-ZF-FKBP cells, GFP fluorescence by flow cytometry. The format is cell-based, human. The following applies: AAV vectors without the engrafted ZF BD, or AAV2-BD-JET-GFP in WT 293 cells. Here is the method:
It was then examined whether CEM87 can control recombinant AAV transgene expression in transduced cells. HEK293T.17 cells that stably expresses ZF-FKBP were transduced with an AAV2 vector that contains a zinc finger DNA binding domain recognition sequence specific to the array in ZF-FKBP upstream of a JET promoter and an eGPF reporter gene downstream of the promoter. After 24 h the cell media was replaced with media containing either 200 nM CEM87 or a DMSO control. 48 hours post CEM87 addition, cells were imaged and flow cytometry run to determine the percent eGFP expression.
Some of these experiments relied on a 293 cell line harboring a stable constitutive ZF-FKBP cassette (293-ZF-FKBP) and transduction by AAV2-JET-GFP vectors harboring the ZF binding domain recognition sequence (BD) upstream of the constitutive JET promoter (FIG. 5). Two chemicals were investigated in these initial studies, CEM87 and CEM114 which bind ZF-FKBP and act to recruit BRD4 or CBP/p300, respectively. […] Following the transduction of AAV2-BD-Jet-GFP vectors to 293-ZF-FKBP cells, increasing concentrations of CEMs (87 or 114) were added to the culture medium. Two days later, GFP fluorescence was analyzed by flow cytometry.
A general note: In flow cytometry, cells or beads pass a laser one at a time.

Structures are written as SMILES. Like-named read-outs stand apart in the source and are kept apart here. A value given as a limit tells only on which side of the number the result lay.

Turning to `CO[C@H]1C[C@@H](C)C/C(C)=C/[C@@H](CCCSCCC(=O)NCCOCCOCCOCCn2cc(COc3ccc(CCc4nc5cc(-c6c(C)noc6C)ccc5n4CCN4CCOCC4)cc3F)nn2)C(=O)C[C@H](O)[C@@H](C)[C@@H](/C(C)=C/[C@@H]2CC[C@@H](O)[C@H](OC)C2)OC(=O)[C@@H]2CCCCN2C(=O)C(=O)[C@]2(O)O[C@H]1[C@@H](OC)C[C@H]2C` [CEM114], the “effect on AAV transgene expression (in words)” value in data set [1] (20K vg/cell, 200 nM CEM114, 48 hours) was “increase AAV transgene expression”.
With `COc1ccc2c(c1)C(c1ccc(Cl)cc1)=N[C@@H](CC(=O)NCc1cn(CCOCCOCCOCCNC(=O)CCSCCC[C@@H]3/C=C(\C)C[C@H](C)C[C@H](OC)[C@H]4O[C@@](O)(C(=O)C(=O)N5CCCC[C@H]5C(=O)O[C@H](/C(C)=C/[C@@H]5CC[C@@H](O)[C@H](OC)C5)[C@H](C)[C@@H](O)CC3=O)[C@H](C)C[C@@H]4OC)nn1)c1nnc(C)n1-2` [CEM87], the “chemical control of transgene (firefly luciferase) expression (in words)” value in data set [1] (2K or 20K vg/cell, varying concentrations, 48 hours after CEM87 (72 hours post AAV infection)) is on record as “dose dependent chemical control”. Moreover, in data set [1] (20K vg/cell, 200 nM CEM87), the “earliest time of statistically significant increase of transgene (firefly luciferase) expression post CEM87 addition” value was 24 h. Also, the “time up to which effects on luciferase expression continue post CEM87 addition” value in data set [1] (20K vg/cell, 200 nM CEM87) was “up to 96 hours”. The “time of highest fold change in luciferase expression after CEM87 dosage” value in data set [1] (20K vg/cell, 200 nM CEM87, 48 hours after AAV infection) turned out to be 24 h. Also, the “time to reversibility of transgene expression after removal of CEM87” value in data set [1] (20K vg/cell, 200 nM CEM87 for 48 hours, then washout or washout with 100× more FK506) was at most 24 h. For the same compound, the AUC(0-t) in data set [2] (single 3 mg/kg IV, read-out: exposure (AUC0-24)) stood at 27500 ng·h/mL; in data set [2] (single 30 mg/kg IP, read-out: AUC0-24) it was 114000 ng·h/mL. Moreover, the half-life in data set [2] (single 3 mg/kg IV, read-out: half-life (t1/2) (converted)) was around 4 h; in data set [2] (single 30 mg/kg IP, read-out: t1/2 (converted)), 4 h. Further, the Cmax turned out to be 34100 ng/mL in data set [2] (single 3 mg/kg IV, read-out: maximal concentration (Cmax)) and 15500 ng/mL in data set [2] (single 30 mg/kg IP, read-out: Cmax). The compound also came in with a bioavailability in data set [2] (single 30 mg/kg IP) of around 50%. Moreover, the “drug response in control experiments” value in data set [3] is on record as “no drug response”.
